Test results taken from patent US7186545B2, “Probiotic strains from Lactobacillus salivarius and antimicrobial agents obtained therefrom” (Enterprise Ireland, priority 1997, dated 2007).

Tested on: Lactobacillus isolates
Experiment: Antibiotic disc susceptibility assay
Details: sensitive if zone of 1 mm or greater
Procedure: Antibiotic sensitivity profiles of the isolates were determined using the ‘disc susceptibility’ assay. Cultures were grown up in the appropriate broth medium for 24–48 h, spread-plated (100 μl) onto agar media and discs containing known concentrations of the antibiotics were placed onto the agar. Strains were examined for antibiotic sensitivity after 1–2 days incubation at 37° under anaerobic conditions. Strains were considered sensitive if zones of inhibition of 1 mm or greater were seen.

Compound	Sensitivity of the lactobacilli to the antibiotic
O=C(N[C@H](CO)[C@H](O)c1ccc([N+](=O)[O-])cc1)C(Cl)Cl [chloramphenicol]	sensitive
NCC[C@H](O)C(=O)N[C@@H]1C[C@H](N)[C@@H](O[C@H]2O[C@H](CN)[C@@H](O)[C@H](O)[C@H]2O)[C@H](O)[C@H]1O[C@H]1O[C@H](CO)[C@@H](O)[C@H](N)[C@H]1O [amikacin]	resistant
CO/N=C(\C(=O)N[C@@H]1C(=O)N2C(C(=O)O)=CCS[C@H]12)c1csc(N)n1 [ceftizoxime]	Variable sensitivity
O=C(O)c1cn(C2CC2)c2cc(N3CCNCC3)c(F)cc2c1=O [ciprofloxacin]	sensitive
CC1(C)S[C@@H]2[C@H](NC(=O)[C@H](N)c3ccc(O)cc3)C(=O)N2[C@H]1C(=O)O [amoxycillin]	sensitive
CC1=C(C(=O)O)N2C(=O)[C@@H](NC(=O)[C@H](N)C3=CCC=CC3)[C@H]2SC1 [cephradine]	sensitive
CCn1cc(C(=O)O)c(=O)c2ccc(C)nc21 [nalidixic acid]	resistant
teicoplanin	Variable sensitivity
CO/N=C(\C(=O)N[C@@H]1C(=O)N2C(C(=O)O)=C(CSc3nc(=O)c(=O)[nH]n3C)CS[C@H]12)c1csc(N)n1 [ceftriaxone]	sensitive
CC1(C)S[C@@H]2[C@H](NC(=O)[C@H](N)c3ccccc3)C(=O)N2[C@H]1C(=O)O [ampicillin]	sensitive
COc1cc(Cc2cnc(N)nc2N)cc(OC)c1OC [trimethoprim]	resistant
CO/N=C(\C(=O)N[C@@H]1C(=O)N2C(C(=O)O)=C(COC(C)=O)CS[C@H]12)c1csc(N)n1 [ceftaxime]	sensitive
CCN[C@@H]1C[C@H](N)[C@@H](O[C@H]2OC(CN)=CC[C@H]2N)[C@H](O)[C@H]1O[C@H]1OC[C@](C)(O)[C@H](NC)[C@H]1O [netilmicin]	resistant
gentamicin	resistant
CN[C@H](CC(C)C)C(=O)N[C@H]1C(=O)N[C@@H](CC(N)=O)C(=O)N[C@H]2C(=O)N[C@H]3C(=O)N[C@H](C(=O)N[C@H](C(=O)O)c4cc(O)cc(O)c4-c4cc3ccc4O)[C@H](O)c3ccc(c(Cl)c3)Oc3cc2cc(c3O[C@@H]2O[C@H](CO)[C@@H](O)[C@H](O)[C@H]2O[C@H]2C[C@](C)(N)[C@H](O)[C@H](C)O2)Oc2ccc(cc2Cl)[C@H]1O [vancomycin]	resistant
